From patent US20240124594A1, “TREATMENT OF CVD AND SYSTEMIC SCEROSIS WITH BETA-1 ADRENERGIC RECEPTOR ANTIBODIES” (The Cleveland Clinic Foundation, priority 2021, published 2024)

Experiments:
human β1AR [1] = molecular target: T1, human β1AR (Homo sapiens, UniProt P08588); experiment: Adenylyl cyclase (AC) assay on plasma membranes of HEK-β1AR cells (G-protein coupling); format: biochemical; design: FLAG; expressed in transfected cells; pcDNA3.1(-) plasmid, a gift from Dr. Yang K. Xiang; settings: agent alone, isolated plasma membranes
T1 sequence (P08588 whole entry): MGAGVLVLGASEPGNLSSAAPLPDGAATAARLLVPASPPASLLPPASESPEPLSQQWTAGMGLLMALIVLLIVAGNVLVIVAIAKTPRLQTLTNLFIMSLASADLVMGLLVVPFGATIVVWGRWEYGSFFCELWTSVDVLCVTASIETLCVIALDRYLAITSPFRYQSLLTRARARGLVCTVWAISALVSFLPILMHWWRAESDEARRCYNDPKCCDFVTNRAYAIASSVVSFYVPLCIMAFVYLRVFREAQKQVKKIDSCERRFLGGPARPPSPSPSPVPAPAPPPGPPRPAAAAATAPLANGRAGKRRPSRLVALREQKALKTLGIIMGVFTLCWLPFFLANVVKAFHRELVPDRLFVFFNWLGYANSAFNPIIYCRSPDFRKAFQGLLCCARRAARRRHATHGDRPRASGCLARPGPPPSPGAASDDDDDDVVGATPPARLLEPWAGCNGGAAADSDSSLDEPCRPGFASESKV
Experimental: (§1) Briefly the treated cells were scraped using osmotic lysis buffer (5 mM Tris-HCl, pH 7.4; 5 mM EDTA; 1 mM PMSF; 2 μg/mL Leupeptin and 1 μg/mL Aprotinin) and homogenized by douncing. Cardiac tissue samples from non-failing human hearts were homogenized in osmotic lysis buffer using Polytron® homogenizer. This was followed by toggling the samples for 10 mins. The intact cells and nuclei were removed by centrifuging these samples at 2500 rpm for 5 mins. The collected supernatant was centrifuged at 17500 rpm for 30 minutes to obtain the plasma membrane as pellet. All the above steps were performed at 4° C.

human cardiac β1AR = molecular target: T2, human cardiac β1AR (Homo sapiens, UniProt P08588); experiment: AC activity in cardiac plasma membranes from non-failing donor human hearts; format: biochemical; settings: agent alone, absence of IgG3 autoantibodies
T2 construct: non-failing human hearts were used as an endogenous system; tissue Cleveland Clinic's Tissue Bank; host or cells: non-failing donor human heart, plasma membrane fraction
T2 sequence (P08588 whole entry): as above
Experimental: as §1

human β1AR [2] = molecular target: T1, human β1AR; experiment: phospho-ERK immunoblotting in β1AR-HEK 293 cells; settings: agent alone
human β1AR [3] = molecular target: T1, human β1AR; experiment: cAMP generation in β1AR-HEK 293 cells (Catchpoint cAMP kit); settings: agent alone, 10 μM for 10 min, serum starved cells, vs control
Experimental: cAMP generation assay was performed using whole cell lysates. The assay was done using the standard manufacturer's protocol.

CC(CCc1ccc(O)cc1)NCCc1ccc(O)c(O)c1 (stereo not shown) [Dob, dobutamine] was tested, and the AC activity (human β1AR [1]) was “significantly increased AC activity”, the AC activity (human cardiac β1AR) was “activating AC activity” and the ERK phosphorylation (human β1AR [2]) was “significantly increased”. The cAMP generation (human β1AR [3]) was “significantly increased”.
